Test results from patent US12679848B2, “Plasma kallikrein inhibitors” (Merck Sharp & Dohme LLC, priority 2020, dated 2026).
One block for each compound: values may come before it.

Experiments:
[1] = target: human factor XIa (Homo sapiens, UniProt P03951); test: Factor XIa Assay; type: biochemical; settings: human factor XIa 0.04 nM, substrate GPR-AFC, 30 min pre-incubation, 25° C., pH 7.4; read-out: FXIa IC50
[2] = target: T1, Human plasma kallikrein (Homo sapiens, UniProt P03952); test: Plasma Kallikrein Assay; type: biochemical; settings: purified Human plasma kallikrein 0.5 nM, substrate Acetyl-K-P-R-AFC, HEPES pH 7.4; read-out: PKal IC50
T1 construct: yields a heavy chain (371 amino acids) and a light chain (248 amino acids); The active site of plasma kallikrein is contained in the light chain; purchased Enzyme Research Laboratories
T1 sequence (P03952 391-638 limits assumed): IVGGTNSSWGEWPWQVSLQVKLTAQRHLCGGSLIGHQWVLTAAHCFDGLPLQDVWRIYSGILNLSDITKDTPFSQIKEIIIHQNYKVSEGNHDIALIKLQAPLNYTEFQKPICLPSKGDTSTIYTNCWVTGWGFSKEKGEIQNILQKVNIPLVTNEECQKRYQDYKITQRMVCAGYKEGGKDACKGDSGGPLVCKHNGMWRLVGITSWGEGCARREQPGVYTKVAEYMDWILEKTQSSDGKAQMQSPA
T1 sequence (P03952 20-390 partner limits assumed): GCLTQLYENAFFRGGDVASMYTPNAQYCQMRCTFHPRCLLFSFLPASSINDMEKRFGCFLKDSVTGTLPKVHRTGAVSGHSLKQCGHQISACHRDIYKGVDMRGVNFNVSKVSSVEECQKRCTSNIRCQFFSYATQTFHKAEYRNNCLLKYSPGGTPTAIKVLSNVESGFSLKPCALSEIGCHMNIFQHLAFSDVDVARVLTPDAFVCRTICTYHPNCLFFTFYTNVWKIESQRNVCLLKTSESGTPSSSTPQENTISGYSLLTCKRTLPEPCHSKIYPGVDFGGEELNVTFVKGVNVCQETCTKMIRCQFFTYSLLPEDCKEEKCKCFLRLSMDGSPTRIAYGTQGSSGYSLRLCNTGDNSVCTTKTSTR
How it was run: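 Purified human plasma kallikrein at 0.5 nM final with substrate Acetyl-K-P-R-AFC at […], in 50 mM HEPES pH 7.4, 150 mM NaCl, 5 mM CaCl2, 0.1% PEG 8000, at rt or 37° C after enzyme-inhibitor equilibration. IC50 from four-parameter logistic fit of fluorescence rate; Ki via Cheng-Prusoff.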

Sequence of human factor XIa (P03951 388-625 limits assumed): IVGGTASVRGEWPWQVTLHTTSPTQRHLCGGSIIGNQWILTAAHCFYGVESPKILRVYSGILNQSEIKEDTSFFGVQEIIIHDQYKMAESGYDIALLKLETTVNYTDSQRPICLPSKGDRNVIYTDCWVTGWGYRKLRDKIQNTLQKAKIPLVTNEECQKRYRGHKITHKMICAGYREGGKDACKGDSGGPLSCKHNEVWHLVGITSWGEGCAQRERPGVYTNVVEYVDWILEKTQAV
Sequence of human factor XIa (P03951 19-387 partner limits assumed): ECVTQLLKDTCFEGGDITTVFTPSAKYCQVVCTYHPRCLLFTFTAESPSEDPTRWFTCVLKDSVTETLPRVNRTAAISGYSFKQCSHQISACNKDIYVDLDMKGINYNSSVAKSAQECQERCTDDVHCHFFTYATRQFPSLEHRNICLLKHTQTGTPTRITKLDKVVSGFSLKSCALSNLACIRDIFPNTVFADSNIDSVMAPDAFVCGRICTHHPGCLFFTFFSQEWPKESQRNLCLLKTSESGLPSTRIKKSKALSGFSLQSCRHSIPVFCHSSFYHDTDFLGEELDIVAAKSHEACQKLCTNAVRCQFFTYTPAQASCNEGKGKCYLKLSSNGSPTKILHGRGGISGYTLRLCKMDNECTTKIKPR

Structure (SMILES): Nc1c(C(=O)N2CCC[C@@]3(C2)OC(=O)Nc2ccc(Cl)c(F)c23)cnn1C1CCCC1 [Example 22, (R)-1'-(5-Amino-1-cyclopenty1-1H-pyrazole-4-carbonyl)-6-chloro-5-fluorospiro[benzo[d][1,3]oxazine-4,3'-piperidin]-2(1H)-one]
IC50 [1]: 1120 nM | IC50 [2]: 15.3 nM

Structure (SMILES): CCn1ncc(C(=O)N2CCC[C@@]3(C2)OC(=O)Nc2ccc(Cl)c(F)c23)c1N [Example 25, (R)-1'-(5-Amino-1-ethy1-1H-pyrazole-4-carbonyl)-6-chloro-5-fluorospiro[benzo[d][1,3]oxazine-4,3'-piperidin]-2(1H)-one]
IC50 [1]: 2000 nM | IC50 [2]: 24.8 nM

Structure (SMILES): CC1(n2ncc(C(=O)N3CCC[C@@]4(C3)OC(=O)Nc3ccc(Cl)c(F)c34)c2N)CCS(=O)(=O)C1 (single isomer, unassigned) [Example 118, (R)-1'-(5-Amino-1-((R or S)-3-methyl-1,1-dioxidotetrahydrothiophen-3-y1)-1H-pyrazole-4-carbonyl)-6-chloro-5-fluorospiro[benzo[d][1,3]oxazine-4,3'-piperidin]-2(1H)-one]
IC50 [1]: 1000 nM | IC50 [2]: 24 nM

Structure (SMILES): Nc1c(C(=O)N2CCC[C@@]3(C2)OC(=O)Nc2ccc(Cl)c(F)c23)cnn1-c1ccccc1Cl [Example 82, (R)-1'-(5-Amino-1-(2-chlorophenyl)-1H-pyrazole-4-carbonyl)-6-chloro-5-fluorospiro[benzo[d][1,3]oxazine-4,3'-piperidin]-2(1H)-one]
IC50 [1]: 739 nM | IC50 [2]: 28.4 nM

Structure (SMILES): CCOC(=O)c1ccc(C)c(-n2ncc(C(=O)N3CCC[C@@]4(C3)OC(=O)Nc3ccc(Cl)c(F)c34)c2N)c1 [Example 70, Ethyl (R)-3-(5-amino-4-(6-chloro-5-fluoro-2-oxo-1,2-dihydrospiro[benzo[d][1,3]oxazine-4,3'-piperidine]-1'-carbonyl)-1H-pyrazol-1-y1)-4-methylbenzoate]
IC50 [1]: 1140 nM | IC50 [2]: 13.4 nM

Stronger by IC50 [1], values ahead:

IC50 [1]: 252 nM | IC50 [2]: 0.9 nM
Structure (SMILES): Nc1c(C(=O)N2CCC[C@@]3(C2)OC(=O)Nc2ccc(Cl)c(F)c23)cnn1Cc1cccc(F)c1 [Example 9, (R)-1'-(5-Amino-1-(3-fluorobenzyl)-1H-pyrazole-4-carbonyl)-6-chloro-5-fluorospiro[benzo[d][1,3]oxazine-4,3'-piperidin]-2(1H)-one]

IC50 [1]: 156 nM | IC50 [2]: 0.7 nM
Structure (SMILES): Cc1cccc(Cn2ncc(C(=O)N3CCC[C@@]4(C3)OC(=O)Nc3ccc(Cl)c(F)c34)c2N)c1 [Example 45, (R)-1'-(5-Amino-1-(3-methylbenzyl)-1H-pyrazole-4-carbonyl)-6-chloro-5-fluorospiro[benzo[d][1,3]oxazine-4,3'-piperidin]-2(1H)-one]

IC50 [1]: 74 nM | IC50 [2]: 0.9 nM
Structure (SMILES): Nc1c(C(=O)N2CCC[C@@]3(C2)OC(=O)Nc2ccc(Cl)c(F)c23)cnn1C(c1ccccc1)C(F)(F)F (single isomer, unassigned) [Example 123]

IC50 [1]: 219 nM | IC50 [2]: 8.4 nM
Structure (SMILES): CC1(c2ccccc2-n2ncc(C(=O)N3CCC[C@@]4(C3)OC(=O)Nc3ccc(Cl)c(F)c34)c2N)CC1 [Example 98, (R)-1'-(5-Amino-1-(2-(1-methylcyclopropyl)phenyl)-1H-pyrazole-4-carbonyl)-6-chloro-5-fluorospiro[benzo[d][1,3]oxazine-4,3'-piperidin]-2(1H)-one]

IC50 [1]: 645 nM | IC50 [2]: 46 nM
Structure (SMILES): Cc1ccc(-n2ncc(C(=O)N3CCC[C@@]4(C3)OC(=O)Nc3ccc(Cl)c(F)c34)c2N)c(C)c1 [Example 86, (R)-1'-(5-Amino-1-(2,4-dimethylphenyl)-1H-pyrazole-4-carbonyl)-6-chloro-5-fluorospiro[benzo[d][1,3]oxazine-4,3'-piperidin]-2(1H)-one]

IC50 [1]: 62 nM | IC50 [2]: 2.2 nM
Structure (SMILES): CCC(C1CCOCC1)n1ncc(C(=O)N2CCC[C@@]3(C2)OC(=O)Nc2ccc(Cl)c(F)c23)c1N (single isomer, unassigned) [Example 112, (R)-1'-(5-Amino-1-((R or S)-1-(tetrahydro-2H-pyran-4-yl)propyl)-1H-pyrazole-4-carbonyl)-6-chloro-5-fluorospiro[benzo[d][1,3]oxazine-4,3'-piperidin]-2(1H)-one]
